In brackets after ≈: the same amount, converted by molar mass.
Experiments:
[1] = test system: P. Berghei; test: In vivo efficacy mouse malaria model; conditions: 2×/day
Procedure: Test compounds will be compared to chloroquine, artemisinin, mefloquine as follows: NMRI mice, SPF, females, […]
From a donor mouse with approximately 30% parasitemia, heparinized blood is taken and diluted in physiological saline to 10^8 parasitized erythrocytes per mL. An aliquot of 0.2 mL (=2×10^7 parasitized erythrocytes) of this suspension is injected intravenously (i.v.) into experimental groups of 4 mice.
Two-to-four hours post-infection, the experimental groups are treated with a single dose by the subcutaneous or the oral route. The compounds are prepared at an appropriate concentration, as a solution or suspension containing 3% ethanol and 7% Tween 80 or in SSV (standard suspending vehicle): […]
Twenty-four hours after the last treatment ([…]) blood smears from all animals are prepared and stained with Giemsa. Parasitemia is determined microscopically by counting 400 red blood cells (“rbcs”), for low parasitemias (<1%) up to 4,000 rbc's have to be counted. The difference between the mean value of the control group (taken as 100%) and those of the experimental groups is calculated and expressed as % Reduction where: [formula]
Additional smears will be taken on day 5 and day 6; and parasitemia will be determined and the activity calculated. Survival time (in days) is recorded, and the mean survival time is calculated. Adverse effects are recorded. Four mice/compound and a minimum of 12 mice/study (vehicle and positive controls run concurrently) are used.

[2] = test system: Leishmania donovani strain MHOM/ET1671L82; test: Leishmaniasis in vitro screening model (axenic amastigotes, Alamar Blue); type: cell-based
How it was run: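 Axenic L. donovani amastigotes (10^5 per well) from hamster spleen, grown at 37° C in SM medium pH 5.4 with 10% FBS, 5% CO2, exposed to serial 3-fold compound dilutions (30 to 0.041 μg/mL) for 72 h. Alamar Blue added for 2 h, fluorescence read (ex 536/em 588 nm); IC50 from sigmoidal curve versus control cultures.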

[3] = test system: Trypanosoma cruzi Tulahuen C2C4 strain; test: Chagas disease in vitro screening model (beta-galactosidase strain in L-6 cells); type: cell-based
How it was run: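 L-6 rat myoblasts in RPMI 1640/10% FBS at 37 °C were infected with 5×10^3 lacZ-expressing T. cruzi Tulahuen C2C4 trypomastigotes. CPRG/Nonidet substrate was read at 540 nm, and IC50 came from sigmoidal curves.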

Structure (SMILES) | % of Activity ([1]; 4 × 100 mg/kg, s.c.) [%] | Mean Survival ([1]; 4 × 100 mg/kg, s.c.) [days] | Parasitized RBC over 100 % of Control ([1]; 4 × 100 mg/kg, s.c.) [%] | Parasitized RBC over 100 Mean ([1]; 4 × 100 mg/kg, s.c.) | % of Activity ([1]; 4 × 300 mg/kg, p.o.) [%] | Mean Survival ([1]; 4 × 300 mg/kg, p.o.) [days] | Parasitized RBC over 100 % of Control ([1]; 4 × 300 mg/kg, p.o.) [%] | Parasitized RBC over 100 Mean ([1]; 4 × 300 mg/kg, p.o.) | IC50 ([2]; Leishmania donovani, read-out: L. donovani IC50) [µg/mL] | IC50 ([3]; Trypanosoma cruzi, TULAHUEN, L6, read-out: T. cruzi IC50) [µg/mL] | % of Activity ([1]; 4 × 30 mg/kg, s.c.) [%] | Mean Survival ([1]; 4 × 30 mg/kg, s.c.) [days] | Parasitized RBC over 100 % of Control ([1]; 4 × 30 mg/kg, s.c.) [%] | Parasitized RBC over 100 Mean ([1]; 4 × 30 mg/kg, s.c.) | % of Activity ([1]; 4 × 100 mg/kg, p.o.) [%] | Mean Survival ([1]; 4 × 100 mg/kg, p.o.) [days] | Parasitized RBC over 100 % of Control ([1]; 4 × 100 mg/kg, p.o.) [%] | Parasitized RBC over 100 Mean ([1]; 4 × 100 mg/kg, p.o.) | L. donovani IC50 [2] [µg/mL] | T. cruzi IC50 [3] [µg/mL]
COc1ccc(B(Oc2cccc3cccnc23)c2cccc(Cl)c2)cc1OC [Compound 27, (3-Chlorophenyl)(3,4-dimethoxyphenyl)borinic acid quinolin-8-yl ester] | 68.09 | 18.7 | 31.91 | 7.9 | 56.94 | 15.7 | 43.08 | 10.7 | 0.47 (≈ 1.16 µM) | 3.2 (≈ 7.93 µM) | – | – | – | – | – | – | – | – | – | –
CC1(C)COC(c2cccc(B(Oc3cccc4cccnc34)c3cccc(C4=NC(C)(C)CO4)c3)c2)=N1 [Compound 13, Bis[3-(4,5-dihydro-4,4-dimethyloxazol-2-yl)phenyl]borinic acid 8-hydroxyquinoline ester] | – | – | – | – | – | – | – | – | – | – | 52.31 | 15.3 | 47.09 | 11.9 | 81.29 | 12.7 | 18.78 | 4.7 | 0.82 | 8.7

Reference: patent US20060014723A1, “Anti-parasitic uses of borinic acid complexes” (priority 2004, published 2006)
